Measurements from patent US11654149B2, “Calmodulin inhibitors for the treatment of ribosomal disorders and ribosomapathies” (CHILDREN'S MEDICAL CENTER CORPORATION, priority 2012, dated 2023).
“Also recorded” adds a separate entry of the source. Counter-ions that a name gives are not always drawn.

How the values were obtained:
[1] = tested on: rps29−/− zebrafish embryos; experiment: flk1 whole-mount in situ hybridization (intersegmental vessel staining) in rps29−/− embryo chemical screen; format: in vivo; details: rps29−/− embryos treated from bud to 23 hpf, flk1 ISH at 24 hpf
Protocol: Fish were maintained under approved laboratory conditions.
(§1) Whole-mount in situ hybridization (ISH) was performed as described (Thisse and Thisse, 2008). Antisense probes were synthesized from digested plasmid. O-Dianisidine was performed as described previously (Paffett-Lugassy and Zon, 2005).

A549 cells [2] = experiment: cell cycle status by flow cytometry (propidium iodide) in A549 cells; format: cell-based
Protocol: (§2) FIGS. 4A-4D show treatment with A-3 inhibits p53 and p21 nuclear localization upon rps19 knockdown.
(§3) A549 and CD34+ cells were infected with previously characterized lentiviral shRNA targeting RPS19 (Dutt et al., 2011). Unless otherwise noted, drugs were added one day post infection, and cells were collected for analysis 3-6 days post infection.

CD34+ cells = experiment: p21 protein by FACS in CD34+ cells with RPS19 knockdown in erythroid proliferation media; format: cell-based, human
Protocol: as §3
(§4) For flow cytometry based measurement of protein levels, cells were fixed in 2% paraformaldehyde for 15 minutes at 37° C., and methanol was added for overnight incubation at 4° C. Cells were incubated for one hour in 1:100 diluted p21 primary antibody (Cell Signaling 12D1) followed by one hour in conjugated secondary antibody and 1:50 diluted p53-conjugated antibody (Cell Signaling 1C12). Immunofluorescence staining was performed as previously described (Dutt et al., 2011).
As DBA is a hematopoietic disorder, the inventors next tested the effects of A-3 in CD34+ cells with RPS19 knockdown by siRNA. In an in vitro system that mimics the differentiation of erythrocytes in vivo, the inventors knocked down RPS19 using shRNA. […] When RPS19 is reduced during erythroid differentiation, p21 mRNA levels increased about 6-fold compared to luciferase-infected controls and the transferrin receptor, CD71+ and a marker that is first detected at the proerythroblast stage, glycophorin A (GPA), are reduced 40% and 50%, respectively (Dutt et al., 2011).

A549 cells [3] = experiment: flow cytometry for annexin and propidium iodide in A549 cells; format: cell-based
Protocol: as §2, §3

[4] = tested on: calmodulin dependent PDE1; details: cited from earlier work
rps29 mutant embryos = experiment: benzidine staining for hemoglobin levels in rps29 mutant embryos; format: in vivo, zebrafish; details: benzidine staining at 40 hpf
Protocol: Fish were maintained under approved laboratory conditions. […] .
as §1

[5] = tested on: rps29−/− zebrafish embryos; experiment: head morphology scoring in rps29−/− embryo chemical screen; details: 24 hpf
Protocol: Fish were maintained under approved laboratory conditions. Studies were performed on AB wildtype strains and hi2903, an insertional mutant in the first intron of ribosomal protein S29 (rps29). Embryos were subjected to chemicals diluted in E3. For screening, chemicals from ICCB Biomol Known Bioactive, Sigma, and Lopac libraries were tested at 1:300 dilutions from library stock. Compounds were tested in two independent experiments of 20 embryos each, so approximately 10 mutant embryos were scored per chemical. […] Nimodipine (Enzo) was diluted in DMSO and tested in doses from 1.5 to 20 μg/mL. SNAP (Cayman) was diluted in DMSO and tested in doses from 0.5 to 5 μg/mL. YS-035 (Sigma) was diluted in water and treated in doses from 0.8 to 8 μg/mL. Vinpocetine (Enzo) was diluted in ethanol and treated in doses from 0.3 to 3 μg/mL.
A screen was performed to identify chemicals that could rescue the endothelial and morphological defects of the rps29^−/− mutant embryo (FIG. 1A). Rps29^−/− fish were incrossed, and embryos were collected for treatment at bud stage (10 hpf). Embryos were treated from bud to 23 hpf with compounds of known bioactivity. After being scored for rescue of head morphology, embryos were fixed at 24 hpf for in situ hybridization of flk1 and rps29. Embryos without rps^29 staining (rps29^−/− mutants) were scored for rescue of flk1 intersegmental vessel staining.

A549 cells [6] = experiment: flow cytometry of p53 and p21 protein in A549 cells with RPS19 shRNA; format: cell-based; details: for p21 protein level / p53 protein level: A549, RPS19 shRNA, drug 24 hours post infection, analyzed 3-6 days post infection
Protocol: as §3, §4
The inventors next tested the effect of calmodulin inhibitors in A549 cells, where p53 is not mutated and is induced upon ribosomal protein knockdown (Fumagalli et al., 2009). A549 cells were infected with control or RPS19 shRNA and treated with A-3 or TFP 24 hours post infection. Cells were analyzed 3-6 days post infection. […] In addition, removal of drug leads to an increase in p21 levels within 24 hours (data not shown).

A549 cells [7] = experiment: immunofluorescence staining for p53 and p21 nuclear localization in A549 cells with RPS19 knockdown; format: cell-based; details: for p53 nuclear staining intensity: p=0.00028 for A-3; for p53 nuclear accumulation: A549 cells
Protocol: as §3, §4
Immunofluorescence staining for p53 and p21 was performed on chemically treated cells (FIG. 4A). For 10-15 cells per condition, average nuclear and cytoplasmic intensity was determined using ImageJ.

[8] = tested on: human T cells subjected to ionizing radiation; details: read-out: EC50, prevention of apoptosis; cited from earlier work
Human CD34+ cells = experiment: in vitro erythroid differentiation assay of CD34+ cells with RPS19 shRNA; format: cell-based; parameters: p21 mRNA: dose or concentration left out as unconfirmed; details: for rescue of CD71+ expression: day 10 of erythroid differentiation, flow cytometry
Protocol: as §3
As DBA is a hematopoietic disorder, the inventors next tested the effects of A-3 in CD34+ cells with RPS19 knockdown by siRNA. In an in vitro system that mimics the differentiation of erythrocytes in vivo, the inventors knocked down RPS19 using shRNA. Human CD34+ cells are expanded in culture for 4 days and then infected with RPS19 shRNA or luciferase control shRNA lentiviral construct, selected with puromycin for 2 days and on day 7, the media is replaced with media containing high EPO to initiate erythroid differentiation (FIG. 6A). When RPS19 is reduced during erythroid differentiation, p21 mRNA levels increased about 6-fold compared to luciferase-infected controls and the transferrin receptor, CD71+ and a marker that is first detected at the proerythroblast stage, glycophorin A (GPA), are reduced 40% and 50%, respectively (Dutt et al., 2011).

[9] = tested on: ion channel currents (calcium, potassium and sodium channels); details: in vitro experiments and in animals; cited from earlier work
[10] = cited from earlier work
[11] = A549, RPS19 knockdown, ImageJ, 10-15 cells per condition

Structure (SMILES): CC(=O)N[C@@H](C(=O)O)C(C)(C)SN=O (racemic) [SNAP]
- rescue of flk1 expression / vasculature defect [1]: rescued flk1 intersegmental vessel staining

Structure (SMILES): NCCNS(=O)(=O)c1cccc2c(Cl)cccc12 [A-3]
- effect on RPS19 shRNA induced cell cycle arrest (A549 cells [2]): no obvious effect
- concentration decreasing the levels of p21 in CD34+ cells (CD34+ cells; CD34+ cells in an erythroid cell population in vitro): 1 to 50 µM
- p21 protein (CD34+ cells; CD34+ cells, RPS19 knockdown, erythroid proliferation media): decrease p21 protein
- rescue of flk1 expression / vasculature defect [1]: did not rescue the vasculature
- annexin V positivity (A549 cells [3]): increased annexin V positivity
- inhibition of calmodulin dependent PDE1 compared with other calmodulin-dependent enzymes [4]: less effective inhibitor
- rescue of hemoglobin levels (rps29 mutant embryos): rescue hemoglobin levels
- rescue of head morphology [5]: rescued the morphology
- p21 protein level (A549 cells [6]): statistically significant decrease; also recorded: decrease of p21 protein
- p53 protein level (A549 cells [6]): still increased; also recorded: without a matching decrease of p53
- time of treatment until p21 protein levels begin to decrease (A549 cells [6]; A549, shorter treatment windows (FIG. 3E-3F, timecourse of A-3 treatment)): ≤ 1.5 h
- p53 nuclear staining intensity (A549 cells [7]; [11]): decreased
- p21 nuclear staining intensity (A549 cells [7]; A549, RPS19 knockdown, ImageJ, 10-15 cells per condition, p=0.007 for A-3): decreased
- p53 nuclear accumulation (A549 cells [7]): reversed p53 nuclear accumulation

Structure (SMILES): Cl.NCCCCCCCCCCNS(=O)(=O)c1cccc2c(Cl)cccc12 [A-7]
- rescue of flk1 expression / vasculature defect [1]: rescue the vasculature defect

Structure (SMILES): NC(=O)c1ccc2[nH]c(-c3ccc(Oc4ccc(Cl)cc4)cc3)nc2c1 [BML-277]
- EC50 [8]: 3 to 7.6 µM
- rescue of CD71+ levels (Human CD34+ cells; inhibitor panel against individual calmodulin-dependent enzymes): rescued CD71+ levels
- p53 nuclear accumulation (A549 cells [7]): prevented nuclear accumulation of p53

Structure (SMILES): CC1(CN2CCC(n3c(=O)[nH]c4ccccc43)CC2)OCc2ccccc2-n2cccc21 (centres unmarked) [CGS-9343B, zaldaride maleate]
- rescue of flk1 expression / vasculature defect [1]: rescued flk1 expression

Structure (SMILES): CN1CCN(CCCN2c3ccccc3Sc3ccc(C(F)(F)F)cc32)CC1 [TFP, 10-[3-(4-methylpiperazin-1-yl)propyl]-2-(trifluoromethyl)-10H-phenothiazine]
- effect on RPS19 shRNA induced cell cycle arrest (A549 cells [2]): no obvious effect
- rescue of flk1 expression / vasculature defect [1]: rescued flk1 expression
- rescue of blood cell differentiation (Human CD34+ cells): can rescue blood cell differentiation
- p21 mRNA (Human CD34+ cells; RPS19 shRNA, quantitative PCR): decreased p21 mRNA to control levels
- rescue of CD71+ expression (Human CD34+ cells; RPS19 shRNA): rescue CD71+ expression
- concentration restoring the percentage of CD71+ cells (Human CD34+ cells; erythroid cell population in vitro): 5 to 20 µM
- annexin V positivity (A549 cells [3]): increased annexin V positivity
- p21 protein level (A549 cells [6]): statistically significant decrease; also recorded: decrease of p21 protein
- p53 protein level (A549 cells [6]): still increased; also recorded: without a matching decrease of p53
- p53 nuclear staining intensity (A549 cells [7]; [11]): same effect was seen
- p53 nuclear accumulation (A549 cells [7]): reversed p53 nuclear accumulation

Structure (SMILES): CCOC(=O)C1=C[C@]2(CC)CCCN3CCc4c(n1c1ccccc41)[C@@H]32 [Vinpocetine, ethyl apovincaminate]
- rescue of flk1 expression / vasculature defect [1]: a hit in the screen

Structure (SMILES): Cl.NCCCCCCNS(=O)(=O)c1cccc2ccccc12 [W-5]
- rescue of flk1 expression / vasculature defect [1]: rescue the vasculature defect

Structure (SMILES): Cl.NCCCCCCNS(=O)(=O)c1cccc2c(Cl)cccc12 [W-7, N-(6-Aminohexyl)-5-chloro-1-naphthalenesulfonamide hydrochloride]
- rescue of flk1 expression / vasculature defect [1]: rescue flk1 expression
- rescue of hemoglobin levels (rps29 mutant embryos): rescues hemoglobin levels

Structure (SMILES): COc1ccc(CCN(C)CCc2ccc(OC)c(OC)c2)cc1OC [YS-035]
- rescue of flk1 expression / vasculature defect [1]: rescued the vasculature defect

Structure (SMILES): CC(C)COCC(CN(Cc1ccccc1)c1ccccc1)N1CCCC1 (centres unmarked) [bepridil]
- IC50 for these processes [9]: low micromolar range

Structure (SMILES): OCCN1CCN(CCCN2c3ccccc3Sc3ccc(C(F)(F)F)cc32)CC1 [fluphenazine, 4-[3-[2-(trifluoromethyl)phenothiazin-10-yl]propyl]-1-piperazineethanol]
- rescue of blood cell differentiation (Human CD34+ cells): can rescue blood cell differentiation
- rescue of CD71+ expression (Human CD34+ cells; RPS19 shRNA): rescue CD71+ expression

Structure (SMILES): OCCN1CCN(CCCN2c3ccccc3Sc3ccc(Cl)cc32)CC1 [perphenazine, 4-[3-(2-Chloro-10H-phenothiazin-10-yl)propyl]-1-piperazineethanol]
- rescue of blood cell differentiation (Human CD34+ cells): can rescue blood cell differentiation
- oral bioavailability [10]: approximately 40%
